The nature of data set [1]: Solubility test. The data set is classed as physicochemical. Particulars: thermodynamic from solid, 0.1 g compound + 1 mL solvent, heated at 40°C for 10 min., returned to room temperature, visual observation. The procedure: By using 4-(3-ethoxybutyl)phenol obtained in the above-mentioned Production Example 1, the following solubility test was carried out. Note here that as a comparison target, 4-(3-hydroxybuty)phenol was used.
To 0.1 g of each compound, 1 mL of each solvent described in the following table 1 was added. The mixture was heated at 40°C for 10 min., and then the temperature was returned to room temperature. The solubility in the solvent at this time was evaluated by visual observation. The evaluation was carried out in which a case where it was dissolved was evaluated as "a" and a case where insolubles were left was evaluated as "b."

Data set [2] relates to B16 melanoma cells. The data set is described as follows: in vitro melanin production inhibition test. It counts as cell-based. The conditions noted are these: Mus musculus, concentration inhibiting production of melanin by 50%, cultured for 72 hours, theophylline 2 mmol/L, melanin per unit amount of protein. The procedure:
The 4-(3-alkoxybutyl)phenol compound obtained in the above-mentioned Production Example 1 was subjected to the following melanin production inhibition test. Note here that as a comparison target, arbutin, ascorbic acid, kojic acid, and linoleic acid, which are known to have a melanin production-inhibitory action, were used. B16 melanoma cells were seeded in a minimum essential medium (MEM) supplemented with 10 vol% fetal bovine serum in 12-well plates at 1 × 10^4 cells/well, and pre-cultured for 24 hours by a usual method. After pre-culture, the medium was replaced to a test medium to which each evaluation sample had been added at various concentrations, and the medium was cultured for 72 hours. As the test medium, the above-mentioned pre-culture medium to which theophylline had been added at 2 mmol/L was used. After culture, cells were collected and dissolved in 1 mol/L of an aqueous solution of sodium hydroxide containing 10 vol% dimethyl sulfoxide, and an OD475 value of the solution was measured and the value was defined as an index of the amount of melanin. Furthermore, at the same time, by using Coomasie Plus Protein Assay Kit (manufactured by PIERCE), the total amount of protein in the solution was measured, and the amount of melanin per unit amount of protein was calculated. Based on the amount of melanin per unit amount of protein, the melanin production inhibition rate was calculated per each addition concentration from the following formula. Melanin production inhibition rate (%) = (A-B)/A [formula] (wherein A denotes the amount of melanin per unit amount of protein when no sample was added, and B denotes the amount of melanin per unit amount of protein when a sample was added). Next, a graph in which the concentration of the added sample is plotted on the axis of abscissas, and a melanin production inhibition rate is plotted in the axis of ordinates was formed, and concentration at which each evaluation sample inhibits the production of melanin by 50% (IC50) was determined from this graph.

Data set [3] concerns cultured skin model containing melanin cells (MEL-300, Asian Doner, manufactured by Kurabo Industries, Ltd.). As to the kind of experiment: Melanin production inhibition test using three-dimensional cultured skin model. It counts as cell-based. Particulars: 336 h, cultured for 14 days, read-out: Melanin production inhibition rate (% with respect to control); for inhibition at 100 µM: Addition concentration 100 µM; for inhibition at 50 µM: Addition concentration 50 µM. An excerpt:
4-(3-alkoxybutyl)phenol obtained in the above-mentioned Production Example 1 was subjected to the below-mentioned melanin production inhibition test. Note here that as a comparison target, 4-(3-hydroxybutyl)phenol in which an alkyl group had been removed from 4-(3-alkoxybutyl)phenol -and 4-(3-acetoxybutyl)phenol and 4-(3-propanoyloxybutyl)phenol as an ester compound having the same number of carbon atoms, were used.
To a skin model cup of a cultured skin model containing melanin cells (MEL-300, Asian Doner, manufactured by Kurabo Industries, Ltd.), 0.2 mL of a solution of a test substance was placed, and the skin model was cultured for 14 days by using an LLMM medium attached to the product. During the culture period, the medium was replaced by a new medium every three days. After culture for 14 days, the skin model was washed, the survival rate was measured by fluorescence measurement (Excitation: 560 nm, Emission: 590 nm) using an AlamarBlue reagent (manufactured by Molecular Probe), and the amount of melanin synthesized in each skin model was measured. The amount of melanin synthesized was determined by the colorimetric determination (405 nm) of a solution obtained by immersing each skin model in PBS so as to separate a cell layer, then washing it with PBS and hydrous ethanol, adding 0.2 mL of a 2N NaOH aqueous solution, and extracting melanin at 100°C for three hours.

[4] abbreviates: oil or lipid, Glyceryl tri(2-ethylhexanoate).
[5] abbreviates: oil or lipid, Isocetyl myristate.
[6] abbreviates: oil or lipid, Methylphenyl polysiloxane (Silicon FZ209).
The mark [7] stands for this setting: oil or lipid, Octyldodecyl myristate.
Setting [8] is: organic solvent or mixture, Dipropylene glycol.
[9] abbreviates: organic solvent or mixture, Ethanol.

In brackets after ≈: the same amount, converted by molar mass.

With `CCOC(C)CCc1ccc(O)cc1` (stereo not drawn) [4-(3-Ethoxybutyl)phenol, 4-(3-ethoxybutyl)phenol], the solubility at 10 min in data set [1] (setting [4]), in data set [1] (setting [5]), in data set [1] (setting [6]), in data set [1] (setting [7]), in data set [1] (setting [8]) and in data set [1] (setting [9]) was > 100 mg/mL in each case. Moreover, the IC50 in data set [2] was 2 µg/mL (≈ 10.3 µM). Further, the inhibition at 100 µM in data set [3] came out at 56%.
In the case of `O=C1O[C@H]([C@@H](O)CO)C(O)=C1O` [Ascorbic acid, ascorbic acid, reference compound], 60 µg/mL (≈ 341 µM) corresponded to half-maximal inhibition in data set [2] (IC50).
Same read-out and setting: the result for `CCCCC/C=C\C/C=C\CCCCCCCC(=O)O` [Linoleic acid, linoleic acid, reference compound] reads 4 µg/mL (≈ 14.3 µM).
The compound `CC(C)OC(C)CCc1ccc(O)cc1` (stereo not drawn) [4-(3-Isopropoxybutyl)phenol, 4-(3-isopropoxybutyl)phenol] came in with an IC50 in data set [2] of 2 µg/mL (≈ 9.6 µM). The inhibition at 50 µM in data set [3] came to 56.9%.
With `CCC(=O)OC(C)CCc1ccc(O)cc1` (stereo not drawn) [4-(3-Propanoyloxybutyl)phenol, 4-(3-propanoyloxybutyl)phenol, reference compound], the inhibition at 50 µM in data set [3] came out at 18.4%.
In data set [2], `O=c1cc(CO)occ1O` [Kojic acid, kojic acid, reference compound] gave an IC50 of 180 µg/mL (≈ 1270 µM).
Compound `COC(C)CCc1ccc(O)cc1` (stereo not drawn) [4-(3-Methoxybutyl)phenol, 4-(3-methoxybutyl)phenol] displayed an IC50 in data set [2] of 2 µg/mL (≈ 11.1 µM). For the same compound, the inhibition at 100 µM in data set [3] came out at 55.6%.
For the compound `CC(=O)OC(C)CCc1ccc(O)cc1` (stereo not drawn) [4-(3-Acetoxybutyl)phenol, 4-(3-acetoxybutyl)phenol, reference compound], the inhibition at 100 µM in data set [3] stood at 26.7%.
On to `CCCOC(C)CCc1ccc(O)cc1` (stereo not drawn) [4-(3-Propoxybutyl)phenol, 4-(3-propoxybutyl)phenol], for which, in data set [2], the IC50 was 2.5 µg/mL (≈ 12 µM). Moreover, the inhibition at 50 µM in data set [3] is 69.5%.
`OC[C@H]1O[C@@H](Oc2ccc(O)cc2)[C@H](O)[C@@H](O)[C@@H]1O` [Arbutin, arbutin, reference compound] yielded an IC50 in data set [2] of 30 µg/mL (≈ 110 µM).
Turning to `CC(O)CCc1ccc(O)cc1` (stereo not drawn) [4-(3-Hydroxybutyl)phenol, 4-(3-hydroxybutyl)phenol, reference compound], the solubility at 10 min is < 100 mg/mL in data set [1] (setting [4]); < 100 mg/mL in data set [1] (setting [5]); < 100 mg/mL in data set [1] (setting [6]); > 100 mg/mL in data set [1] (setting [7]); > 100 mg/mL in data set [1] (setting [8]); > 100 mg/mL in data set [1] (setting [9]). Also, in data set [3], the inhibition at 100 µM was found to be 18.6%.

The values above are taken from patent EP2556819A1, “EXTERNAL SKIN PREPARATION” (Kao Corporation, priority 2010, dated 2011).
